Data published in PubChem BioAssay AID2060895 (Molecular Pharmacology Branch, DTP, NCI, 2025).

System: PDC 899932-113-R3-J6 complex spheroid viability
Experiment: Anticancer human tumor 899932-113-R3-J6-PDC patient-derived melanoma cell line growth inhibition [RAS]
Conditions: for IC50: curve of first compound; for viability, T/C: stronger effect = lower value
From the text: RAS pathway inhibitors in Combinations in Complex Spheroids
A high-throughput screen of multi-cell type tumor spheroids was designed to identify active combinations of RAS pathway inhibitors and targeted small molecules. Complex spheroids include a stromal component modeled by human endothelial cells (HUVEC) and fibroblasts modeled by human mesenchymal stem cells (MSCs). The concentration ranges selected for each drug and investigational agent were based upon clinically achievable concentrations if the clinical Cmax of the agent was known.
Compounds. The drugs and investigational agents: abemaciclib (NSC768073), cobimetinib (NSC768068), divarasib (GDC6063, NSC841802), docetaxel (NSC628503), GDC-1971 (RLY-1971, NSC841576), gemcitabine (NSC613327), inavolisib (NSC800729), ipatasertib (NSC767898), KB-0742 (NSC834161), MRTX-1133 (NSC836407), osimertinib (NSC779217), RMC-4630 (NSC839698), RMC-6236 (NSC851965), RMC-6291 (NSC852671), Ro-3306 (NSC812927), sapanisertib (NSC764658), SN-38 (NSC673596), staurosporine (NSC755774), SY5609 (NSC837396), and tovorafenib (DAY101, NSC766906), were obtained from the National Cancer Institute (NCI) Developmental Therapeutics Program Chemical Repository. The FDA-approved anticancer drug set is available from the NCI Developmental Therapeutics Program. […] The stock solutions were prepared in dimethyl sulfoxide (DMSO, Sigma-Aldrich, St. Louis, MO, cat. D2650) at 800-fold the tested concentration and stored at -70 degrees C prior to their use. All drugs and investigational agents were tested over a range starting from a high concentration at or near the clinical Cmax and decreasing in half-log increments. If the clinical Cmax for an agent had not been determined, the highest concentration tested was 10 microM.
Cell Culture. All cells were maintained in an incubator at 37 degrees C and 5% CO2 with 95% humidity. The PDC lines were cultured according to standard operating procedures established by the NCI PDMR. All PDCs were thawed and cultured in Matrigel-coated flasks prepared with a working solution of 1X Ham's F-12 nutrient mix, without supplementation (Invitrogen, Waltham, MA, cat. 11765054), 100 U/mL penicillin-streptomycin (Invitrogen, cat. 15140122), and 2.5% Matrigel (Corning Inc., Corning, NY, cat. 354248) for the first three passages. The 362531-283-R-J2-PDC and 782815-120-R-J1-PDC lines were cultured in 6C/Colon 1B media, which includes advanced DMEM/F-12 (Thermo Fisher Scientific, cat. 12634028), 10 mM HEPES (Thermo Fisher Scientific, cat. 15630080), 1X GlutaMAX supplement (Thermo Fisher Scientific, cat. 35050061), 0.1 mg/mL primocin (InvivoGen, San Diego, CA, cat. ant-pm-2), 10% defined fetal bovine serum, heat inactivated (HyClone Laboratories Inc., Logan, UT, cat. SH30070.03HI), 50% L-WRN conditioned media (ATCC, cat. CRL-3276), 1.25 mM N-Acetyl-L-cysteine (Sigma-Aldrich, cat. A9165), 10 mM nicotinamide (Sigma-Aldrich, cat. N0636), 1X B-27 supplement (Thermo Fisher Scientific, cat. 17504044), 1X N-2 supplement (Thermo Fisher Scientific, cat. 17502048), 50 ng/mL human EGF (Thermo Fisher Scientific, cat. PHG0311), and 10 microM Y-27632 dihydrochloride (Tocris Bioscience, cat. 1254). The K12877-001-R-J1-PDC line was cultured in 6I media, which includes all 6C/Colon 1B media plus 10 ng/mL human FGF-10 (PeproTech, cat. 100-26), 1 ng/mL human FGF-2 (PeproTech, cat. 100-18B), 1 µM prostaglandin E2 (Tocris Bioscience, cat. 2296), […] hydrocortisone (Sigma-Aldrich, cat. H4001), and […] bovine insulin (Sigma-Aldrich, cat. I6634). The K86415-001-R-J1-PDC line was cultured in 6D media, which includes all 6C/Colon 1B media components minus the L-WRN conditioned media. The 485176-168-R4-J1-PDC was cultured in PANC media, which includes all 6C/Colon 1B media plus 100 ng/mL human FGF-10 (PeproTech, cat. 100-26), 500 nM SB-431542 (Selleckchem, cat. S1067), and 10 nM gastrin (Tocris Bioscience, cat. 3006). […]

[1] = second compound 0.0316 µM, first compound 0.0316 µM
[2] = second compound 0.0316 µM, first compound 0.1 µM
[3] = second compound 0.0316 µM, first compound 0.316 µM
[4] = second compound 0.0316 µM, first compound 1 µM
[5] = second compound 0.0316 µM, first compound 3.16 µM
[6] = second compound 0.0316 µM, first compound 10 µM
[7] = second compound 0.1 µM, first compound 0.0316 µM
[8] = second compound 0.1 µM, first compound 0.1 µM
[9] = second compound 0.1 µM, first compound 0.316 µM
[10] = second compound 0.1 µM, first compound 1 µM
[11] = second compound 0.1 µM, first compound 3.16 µM
[12] = second compound 0.1 µM, first compound 10 µM
[13] = second compound 0.316 µM, first compound 0.0316 µM
[14] = second compound 0.316 µM, first compound 0.1 µM
[15] = second compound 0.316 µM, first compound 0.316 µM
[16] = second compound 0.316 µM, first compound 1 µM
[17] = second compound 0.316 µM, first compound 3.16 µM
[18] = second compound 0.316 µM, first compound 10 µM
[19] = second compound 1 µM, first compound 0.0316 µM
[20] = second compound 1 µM, first compound 0.1 µM
[21] = second compound 1 µM, first compound 0.316 µM
[22] = second compound 1 µM, first compound 1 µM
[23] = second compound 1 µM, first compound 3.16 µM
[24] = second compound 1 µM, first compound 10 µM
[25] = second compound 3.16 µM, first compound 0.0316 µM
[26] = second compound 3.16 µM, first compound 0.1 µM
[27] = second compound 3.16 µM, first compound 0.316 µM
[28] = second compound 3.16 µM, first compound 1 µM
[29] = second compound 3.16 µM, first compound 3.16 µM
[30] = second compound 3.16 µM, first compound 10 µM
[31] = second compound 10 µM, first compound 0.0316 µM
[32] = second compound 10 µM, first compound 0.1 µM
[33] = second compound 10 µM, first compound 0.316 µM
[34] = second compound 10 µM, first compound 1 µM
[35] = second compound 10 µM, first compound 3.16 µM
[36] = second compound 10 µM, first compound 10 µM
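Throughout, for viability, T/C: spheroids exposed to agents for seven days before readout; 100% = DMSO vehicle control wells.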

Work on `CCC(CC)c1cc(NC2CCC(N)C2)n2nccc2n1` (stereo unspecified) + C#Cc1c(F)ccc2cc(O)cc(-c3ncc4c(N5CC6CCC(C5)N6)nc(OCC56CCCN5CC(F)C6)nc4c3F)c12 yielded an IC50 (second compound 0.0316 µM) of 1.69 µM, an IC50 (second compound 0.1 µM) of 1.64 µM and an IC50 (second compound 0.316 µM) of 1.66 µM. The IC50 (second compound 1 µM) was 1.74 µM, the IC50 (second compound 3.16 µM) was 1.79 µM and the IC50 (second compound 10 µM) was 1.72 µM. For the same compound, the viability, T/C [1] was 96.8%, the viability, T/C [2] was 91.5% and the viability, T/C [3] was 103%. It also gave a viability, T/C [4] of 91.5%, a viability, T/C [5] of 0.88% and a viability, T/C [6] of 0.24%. It also gave a viability, T/C [7] of 104%, a viability, T/C [8] of 104% and a viability, T/C [9] of 92.9%. For the same compound, the viability, T/C [10] was 87.3%, the viability, T/C [11] was 0.78% and the viability, T/C [12] was 0.23%. For the same compound, the viability, T/C [13] was 107%, the viability, T/C [14] was 93.9% and the viability, T/C [15] was 98.5%. It also gave a viability, T/C [16] of 88.3%, a viability, T/C [17] of 0.84% and a viability, T/C [18] of 0.9%. For the same compound, the viability, T/C [19] was 112%, the viability, T/C [20] was 112% and the viability, T/C [21] was 120%. The viability, T/C [22] was 95.2%, the viability, T/C [23] was 1.22% and the viability, T/C [24] was 0.22%. The viability, T/C [25] was 103%, the viability, T/C [26] was 107% and the viability, T/C [27] was 107%. It also gave a viability, T/C [28] of 100%, a viability, T/C [29] of 0.97% and a viability, T/C [30] of 0.24%. It also gave a viability, T/C [31] of 116%, a viability, T/C [32] of 105% and a viability, T/C [33] of 105%. The viability, T/C [34] was 94.2%, the viability, T/C [35] was 0.5% and the viability, T/C [36] was 0.27%.

In the case of `Cc1nc(N2CCC3(CC2)COC(C)C3N)c(CO)nc1Sc1ccnc(N)c1Cl` (stereo unspecified) + C#Cc1c(F)ccc2cc(O)cc(-c3ncc4c(N5CC6CCC(C5)N6)nc(OCC56CCCN5CC(F)C6)nc4c3F)c12, the IC50 (second compound 0.0316 µM) is reported as over 10 µM, the IC50 (second compound 0.1 µM) is reported as over 10 µM and the IC50 (second compound 0.316 µM) is reported as over 10 µM. It also gave an IC50 (second compound 1 µM) of over 10 µM, an IC50 (second compound 3.16 µM) of over 10 µM and an IC50 (second compound 10 µM) of over 10 µM. For the same compound, the viability, T/C [1] was 98.1%, the viability, T/C [2] was 104% and the viability, T/C [3] was 108%. For the same compound, the viability, T/C [4] was 104%, the viability, T/C [5] was 118% and the viability, T/C [6] was 119%. For the same compound, the viability, T/C [7] was 99.3%, the viability, T/C [8] was 99.1% and the viability, T/C [9] was 107%. It also gave a viability, T/C [10] of 103%, a viability, T/C [11] of 114% and a viability, T/C [12] of 123%. The viability, T/C [13] was 111%, the viability, T/C [14] was 101% and the viability, T/C [15] was 96.3%. It also gave a viability, T/C [16] of 118%, a viability, T/C [17] of 117% and a viability, T/C [18] of 119%. The viability, T/C [19] was 106%, the viability, T/C [20] was 109% and the viability, T/C [21] was 108%. For the same compound, the viability, T/C [22] was 113%, the viability, T/C [23] was 116% and the viability, T/C [24] was 122%. The viability, T/C [25] was 126%, the viability, T/C [26] was 110% and the viability, T/C [27] was 108%. The viability, T/C [28] was 112%, the viability, T/C [29] was 122% and the viability, T/C [30] was 121%. It also gave a viability, T/C [31] of 106%, a viability, T/C [32] of 111% and a viability, T/C [33] of 112%. For the same compound, the viability, T/C [34] was 123%, the viability, T/C [35] was 113% and the viability, T/C [36] was 123%.

`NC1c2ccccc2OC12CCN(c1cnc3c(N4CCCc5ncccc54)n[nH]c3n1)CC2` (stereo unspecified) + C#Cc1c(F)ccc2cc(O)cc(-c3ncc4c(N5CC6CCC(C5)N6)nc(OCC56CCCN5CC(F)C6)nc4c3F)c12 showed an IC50 (second compound 0.0316 µM) of over 10 µM, an IC50 (second compound 0.1 µM) of over 10 µM and an IC50 (second compound 0.316 µM) of over 10 µM. It also gave an IC50 (second compound 1 µM) of over 10 µM, an IC50 (second compound 3.16 µM) of over 10 µM and an IC50 (second compound 10 µM) of over 10 µM. The viability, T/C [1] was 108%, the viability, T/C [2] was 103% and the viability, T/C [3] was 117%. The viability, T/C [4] was 121%, the viability, T/C [5] was 104% and the viability, T/C [6] was 98.8%. It also gave a viability, T/C [7] of 111%, a viability, T/C [8] of 115% and a viability, T/C [9] of 114%. The viability, T/C [10] was 114%, the viability, T/C [11] was 117% and the viability, T/C [12] was 96.4%. The viability, T/C [13] was 108%, the viability, T/C [14] was 120% and the viability, T/C [15] was 105%. It also gave a viability, T/C [16] of 116%, a viability, T/C [17] of 110% and a viability, T/C [18] of 96.6%. The viability, T/C [19] was 106%, the viability, T/C [20] was 104% and the viability, T/C [21] was 124%. For the same compound, the viability, T/C [22] was 112%, the viability, T/C [23] was 105% and the viability, T/C [24] was 111%. For the same compound, the viability, T/C [25] was 134%, the viability, T/C [26] was 112% and the viability, T/C [27] was 135%. The viability, T/C [28] was 133%, the viability, T/C [29] was 120% and the viability, T/C [30] was 107%. The viability, T/C [31] was 123%, the viability, T/C [32] was 126% and the viability, T/C [33] was 120%. For the same compound, the viability, T/C [34] was 117%, the viability, T/C [35] was 112% and the viability, T/C [36] was 86.5%.
